Experimental data reported in the NIST ThermoML archive (doi:10.1016/j.fluid.2014.12.027).
Numbers after ± are expanded uncertainties.

conditions: 298 K; 101.33 kPa; Liquid; Vibrating tube method

SMILES | mass density
CCCCCCCCCC [decane] | 722.439 ± 0.28 kg/m3
OCCOCCO [diethylene glycol] | 1109.16 ± 0.34 kg/m3
Cc1ccccc1 [toluene] | 857.606 ± 0.19 kg/m3
OCCOCCOCCO [triethylene glycol] | 1116.05 ± 0.34 kg/m3
